From patent US20230079819A1, “COMPOUNDS AND USES THEREOF” (Foghorn Therapeutics Inc., priority 2019, published 2023)

Columns and labels:
[1] = molecular target: T1, BRG-1 (Homo sapiens, UniProt P51532); assay: ATPase catalytic activity of BRG-1, ADP-Glo in vitro biochemical assay; settings: ATPase catalytic activity, 30 nM BRG-1, 400 μM ATP, read-out: BRG1 IP50 (μM)*
T1 construct: made in house; host or cells: High Five insect cells

[2] = molecular target: T2, BRM (Homo sapiens, UniProt P51531); assay: ATPase catalytic activity of BRM, ADP-Glo in vitro biochemical assay; settings: ATPase catalytic activity, 30 nM BRM, 400 μM ATP, read-out: BRM IP50 (μM)*
T2 construct: made in house; host or cells: High Five insect cells
T2 sequence (P51531 whole entry): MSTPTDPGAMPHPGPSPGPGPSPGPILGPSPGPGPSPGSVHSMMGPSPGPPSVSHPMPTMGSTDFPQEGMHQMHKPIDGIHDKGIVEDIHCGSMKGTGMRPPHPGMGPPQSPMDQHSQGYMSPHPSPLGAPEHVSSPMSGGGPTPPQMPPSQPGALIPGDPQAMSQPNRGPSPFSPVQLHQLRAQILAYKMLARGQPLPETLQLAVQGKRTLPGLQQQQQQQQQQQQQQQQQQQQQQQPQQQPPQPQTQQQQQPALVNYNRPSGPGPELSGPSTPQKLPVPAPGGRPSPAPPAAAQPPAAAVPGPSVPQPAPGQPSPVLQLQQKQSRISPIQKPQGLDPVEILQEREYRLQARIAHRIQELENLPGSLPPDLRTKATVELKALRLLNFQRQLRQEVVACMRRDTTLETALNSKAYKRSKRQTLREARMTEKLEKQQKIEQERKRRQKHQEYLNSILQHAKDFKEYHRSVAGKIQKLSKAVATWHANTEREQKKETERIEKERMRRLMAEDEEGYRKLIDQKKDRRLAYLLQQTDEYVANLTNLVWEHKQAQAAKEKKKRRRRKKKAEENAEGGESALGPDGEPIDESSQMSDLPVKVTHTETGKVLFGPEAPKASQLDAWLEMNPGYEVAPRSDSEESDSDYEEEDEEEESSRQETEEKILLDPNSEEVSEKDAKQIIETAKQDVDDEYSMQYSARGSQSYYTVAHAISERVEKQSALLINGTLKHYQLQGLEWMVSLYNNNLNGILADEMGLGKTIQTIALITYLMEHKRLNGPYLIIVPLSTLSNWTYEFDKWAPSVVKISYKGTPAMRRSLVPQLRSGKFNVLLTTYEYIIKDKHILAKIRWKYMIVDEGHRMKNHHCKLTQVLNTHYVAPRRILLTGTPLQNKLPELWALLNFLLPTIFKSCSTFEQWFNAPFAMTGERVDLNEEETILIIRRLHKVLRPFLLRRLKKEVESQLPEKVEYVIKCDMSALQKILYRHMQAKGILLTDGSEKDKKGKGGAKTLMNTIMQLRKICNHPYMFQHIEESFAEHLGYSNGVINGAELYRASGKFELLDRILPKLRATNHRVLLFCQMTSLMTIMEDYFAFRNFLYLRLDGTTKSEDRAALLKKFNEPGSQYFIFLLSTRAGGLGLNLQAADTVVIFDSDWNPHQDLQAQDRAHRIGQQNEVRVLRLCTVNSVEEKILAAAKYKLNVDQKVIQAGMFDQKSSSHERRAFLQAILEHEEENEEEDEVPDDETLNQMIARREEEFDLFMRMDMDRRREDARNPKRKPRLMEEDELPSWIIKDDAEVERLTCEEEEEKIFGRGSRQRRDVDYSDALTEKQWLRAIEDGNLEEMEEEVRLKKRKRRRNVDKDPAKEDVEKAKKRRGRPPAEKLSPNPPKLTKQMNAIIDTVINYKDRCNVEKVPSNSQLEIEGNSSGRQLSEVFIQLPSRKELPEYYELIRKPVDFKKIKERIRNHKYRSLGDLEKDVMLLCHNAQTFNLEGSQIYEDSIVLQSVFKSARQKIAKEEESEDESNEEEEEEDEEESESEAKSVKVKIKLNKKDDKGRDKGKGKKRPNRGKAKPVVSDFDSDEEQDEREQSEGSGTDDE

T1 sequence (P51532 whole entry): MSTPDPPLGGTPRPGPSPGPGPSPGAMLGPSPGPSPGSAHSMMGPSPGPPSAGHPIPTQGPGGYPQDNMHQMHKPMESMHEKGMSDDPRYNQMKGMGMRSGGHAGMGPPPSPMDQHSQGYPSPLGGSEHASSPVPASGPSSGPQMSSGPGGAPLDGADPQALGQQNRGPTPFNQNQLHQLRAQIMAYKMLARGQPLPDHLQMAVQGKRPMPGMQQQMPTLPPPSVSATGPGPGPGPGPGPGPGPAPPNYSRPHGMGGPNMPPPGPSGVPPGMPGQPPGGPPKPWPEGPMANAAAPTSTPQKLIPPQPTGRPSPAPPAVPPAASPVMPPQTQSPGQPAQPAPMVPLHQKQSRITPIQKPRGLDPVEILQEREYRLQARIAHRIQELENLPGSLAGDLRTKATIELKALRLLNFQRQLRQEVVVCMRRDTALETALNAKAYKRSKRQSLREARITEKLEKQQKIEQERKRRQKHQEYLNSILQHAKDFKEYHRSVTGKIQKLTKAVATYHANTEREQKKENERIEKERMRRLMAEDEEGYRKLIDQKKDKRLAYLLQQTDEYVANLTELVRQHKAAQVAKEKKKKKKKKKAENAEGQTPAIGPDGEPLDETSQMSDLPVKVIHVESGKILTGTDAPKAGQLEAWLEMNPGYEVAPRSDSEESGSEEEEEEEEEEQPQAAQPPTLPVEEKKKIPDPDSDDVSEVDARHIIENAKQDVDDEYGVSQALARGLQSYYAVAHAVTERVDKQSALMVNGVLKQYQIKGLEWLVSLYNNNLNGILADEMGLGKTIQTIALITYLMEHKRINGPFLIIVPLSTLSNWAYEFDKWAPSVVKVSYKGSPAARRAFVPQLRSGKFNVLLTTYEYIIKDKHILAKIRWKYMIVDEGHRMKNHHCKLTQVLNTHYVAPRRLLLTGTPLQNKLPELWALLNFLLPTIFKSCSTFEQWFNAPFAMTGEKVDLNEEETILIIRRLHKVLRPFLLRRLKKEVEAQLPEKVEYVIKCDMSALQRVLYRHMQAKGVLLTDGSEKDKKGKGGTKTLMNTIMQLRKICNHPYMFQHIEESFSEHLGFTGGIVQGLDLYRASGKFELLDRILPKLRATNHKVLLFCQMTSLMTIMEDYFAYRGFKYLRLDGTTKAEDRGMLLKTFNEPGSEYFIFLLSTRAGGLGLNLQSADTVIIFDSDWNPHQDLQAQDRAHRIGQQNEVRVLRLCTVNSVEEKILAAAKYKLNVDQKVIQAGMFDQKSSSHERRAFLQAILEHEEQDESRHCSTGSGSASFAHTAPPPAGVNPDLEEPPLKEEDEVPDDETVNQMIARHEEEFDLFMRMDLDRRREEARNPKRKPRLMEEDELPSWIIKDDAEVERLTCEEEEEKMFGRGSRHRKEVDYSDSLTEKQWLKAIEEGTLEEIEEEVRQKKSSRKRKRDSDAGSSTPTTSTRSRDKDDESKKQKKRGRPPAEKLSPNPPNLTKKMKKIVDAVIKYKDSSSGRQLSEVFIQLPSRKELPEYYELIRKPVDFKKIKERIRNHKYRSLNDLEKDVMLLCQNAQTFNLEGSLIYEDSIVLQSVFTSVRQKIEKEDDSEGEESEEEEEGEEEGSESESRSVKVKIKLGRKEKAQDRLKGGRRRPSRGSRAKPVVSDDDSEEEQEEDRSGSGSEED

| SMILES | IC50 [1] [µM] | IC50 [2] [µM] |
| --- | --- | --- |
| CS(=O)(=O)n1ccc(C(=O)NCC(=O)Nc2nc(-c3cc(F)c4ccoc4c3)cs2)c1 [Compound 253] | > 0.01 | > 0.01 |
| CO[C@H]1C[C@@H](Oc2cccc(-c3csc(NC(=O)CNC(=O)c4ccn(S(C)(=O)=O)c4)n3)c2)C1 [Compound 254] | > 0.01 | > 0.01 |
| CS(=O)(=O)n1ccc(C(=O)NCC(=O)Nc2nc(-c3cc(F)c4c(c3)OCC4)cs2)c1 [Compound 255] | < 0.01 | < 0.01 |
| CS(=O)(=O)n1ccc(C(=O)NCC(=O)Nc2nc(-c3cccc(C4(F)CCC4)c3)cs2)c1 [Compound 256] | > 0.01 | > 0.01 |
| CO[C@]1(C)CCCN(c2cccc(-c3csc(NC(=O)CNC(=O)c4ccn(S(C)(=O)=O)c4)n3)c2)C1 [Compound 257] | > 0.01 | > 0.01 |
| CO[C@@]1(C)CCCN(c2cccc(-c3csc(NC(=O)CNC(=O)c4ccn(S(C)(=O)=O)c4)n3)c2)C1 [Compound 258] | > 0.01 | > 0.01 |
| CN1CCOCc2ccc(-c3csc(NC(=O)CNC(=O)c4ccn(S(C)(=O)=O)c4)n3)cc21 [Compound 259] | > 0.01 | > 0.01 |
| CS(=O)(=O)n1ccc(C(=O)NCC(=O)Nc2nc(-c3cc(Cl)cc(OC4CC4)c3)cs2)c1 [Compound 260] | > 0.01 | > 0.01 |
| Cn1ncc(-c2cccc(-c3csc(NC(=O)CNC(=O)c4ccn(S(C)(=O)=O)c4)n3)c2)n1 [Compound 261] | < 0.01 | < 0.01 |
| COc1ccncc1-c1cccc(-c2csc(NC(=O)CNC(=O)c3ccn(C4(C)COC4)c3)n2)n1 [Compound 262, N-[2-[[4-[6-(4-methoxy-3-pyridyl)-2-pyridyl]thiazol-2-yl]amino]-2-oxo-ethyl]-1-(3-methyloxetan-3-yl)pyrrole-3-carboxamide] | > 0.01 | > 0.01 |
| CN1CCc2ccc(-c3csc(NC(=O)CNC(=O)c4ccn(C(C)(C)C)c4)n3)cc21 [Compound 263] | > 0.01 | > 0.01 |
| CS(=O)(=O)n1ccc(C(=O)NCC(=O)Nc2nc(-c3ccc4c(c3F)OCC4)cs2)c1 [Compound 264] | > 0.01 | > 0.01 |
| CS(=O)(=O)n1ccc(C(=O)NCC(=O)Nc2nc(-c3cccc(OC4CC4)c3)cs2)c1 [Compound 265] | > 0.01 | > 0.01 |
| CS(=O)(=O)n1ccc(C(=O)NCC(=O)Nc2nc(-c3cccc(OCF)c3)cs2)c1 [Compound 266] | > 0.01 | > 0.01 |
| C[C@@H]1CN(c2cc(-c3csc(NC(=O)CNC(=O)c4ccn(S(C)(=O)=O)c4)n3)cc(C3CC3)c2)C[C@H](C)O1 [Compound 267] | > 0.1 | > 0.1 |
| C[C@@H]1CN(c2cccc(-c3csc(NC(=O)CNC(=O)c4ccn(C5(C)COC5)c4)n3)c2F)C[C@H](C)O1 [Compound 268] | > 0.1 | > 0.01 |
| C[C@@H]1CN(c2cccc(-c3csc(NC(=O)CNC(=O)c4ccn(C(C)(C)C)c4)n3)c2F)C[C@H](C)O1 [Compound 269] | > 0.01 | > 0.01 |
| CN1CCc2ccc(-c3csc(NC(=O)CNC(=O)c4ccn(S(C)(=O)=O)c4)n3)cc21 [Compound 270] | > 0.01 | > 0.01 |
| CC1(n2ccc(C(=O)NCC(=O)Nc3nc(-c4ccc5c(c4)OCC5)cs3)c2)COC1 [Compound 271] | > 0.1 | > 0.01 |

| SMILES | IC50 [1] [µM] | IC50 [2] [µM] |
| --- | --- | --- |
| CNc1cccc(-c2csc(NC(=O)CNC(=O)c3ccn(C(C)(C)C)c3)n2)c1 [Compound 272] | > 0.1 | > 0.01 |
| CN1CCCCc2ccc(-c3csc(NC(=O)CNC(=O)c4ccn(S(C)(=O)=O)c4)n3)cc21 [Compound 273] | > 0.1 | > 0.01 |
| CS(=O)(=O)n1ccc(C(=O)NCC(=O)Nc2nc(-c3cccc(OC4CCCOC4)c3)cs2)c1 (stereo not shown) [Compound 274] | > 0.01 | > 0.01 |
| CS(=O)(=O)n1ccc(C(=O)NCC(=O)Nc2nc(-c3cccc(-c4cn(C(F)F)nn4)c3)cs2)c1 [Compound 275] | > 0.01 | > 0.01 |
| CS(=O)(=O)n1ccc(C(=O)NCC(=O)Nc2nc(-c3cccc(OC(F)(F)F)c3)cs2)c1 [Compound 276] | > 0.01 | > 0.01 |
| CS(=O)(=O)n1ccc(C(=O)NCC(=O)Nc2nc(-c3cccc(-c4cnn(C5CC5)n4)c3)cs2)c1 [Compound 277] | > 0.01 | < 0.01 |
| CS(=O)(=O)n1ccc(C(=O)NCC(=O)Nc2nc(-c3cccc(-c4cnnn4C(F)F)c3)cs2)c1 [Compound 278] | > 0.01 | > 0.01 |
| CS(=O)(=O)n1ccc(C(=O)NCC(=O)Nc2nc(-c3cccc(OC4CCOCC4)c3)cs2)c1 [Compound 279] | > 0.01 | > 0.01 |
| CNc1cccc(-c2csc(NC(=O)CNC(=O)c3ccn(S(C)(=O)=O)c3)n2)c1 [Compound 280] | > 0.01 | > 0.01 |
| CC(C)Oc1cccc(-c2csc(NC(=O)CNC(=O)c3ccn(S(C)(=O)=O)c3)n2)c1 [Compound 281] | > 0.01 | > 0.01 |
| CN1CCOc2ccc(-c3csc(NC(=O)CNC(=O)c4ccn(S(C)(=O)=O)c4)n3)cc21 [Compound 282] | < 0.01 | < 0.01 |
| CN1CCOc2ccc(-c3csc(NC(=O)CNC(=O)c4ccn(C(C)(C)C)c4)n3)cc21 [Compound 283] | > 0.01 | > 0.01 |
| CS(=O)(=O)n1ccc(C(=O)NCC(=O)Nc2nc(-c3cccc(OC4CCC4)c3)cs2)c1 [Compound 284] | > 0.01 | > 0.01 |
| CS(=O)(=O)n1ccc(C(=O)NCC(=O)Nc2nc(-c3cccc(OC(F)F)c3)cs2)c1 [Compound 285] | > 0.01 | > 0.01 |
| CCOc1cccc(-c2csc(NC(=O)CNC(=O)c3ccn(S(C)(=O)=O)c3)n2)c1 [Compound 286] | > 0.01 | > 0.01 |
| CN(C)c1cccc(-c2csc(NC(=O)CNC(=O)c3ccn(S(C)(=O)=O)c3)n2)c1 [Compound 287] | > 0.01 | < 0.01 |
| CN(C)c1cccc(-c2csc(NC(=O)CNC(=O)c3ccn(C(C)(C)C)c3)n2)c1 [Compound 288] | > 0.01 | > 0.01 |
| CS(=O)(=O)n1ccc(C(=O)NCC(=O)Nc2nc(-c3cccc(-c4cnn(C(F)F)n4)c3)cs2)c1 [Compound 289] | > 0.01 | > 0.01 |
| CS(=O)(=O)n1ccc(C(=O)NCC(=O)Nc2nc(-c3cccc(N4CC[C@@H](N)[C@H](F)C4)c3)cs2)c1 [Compound 290] | > 0.01 | < 0.01 |

| SMILES | IC50 [1] [µM] | IC50 [2] [µM] |
| --- | --- | --- |
| C[C@@H]1C[C@@H](COc2cccc(-c3csc(NC(=O)CNC(=O)c4ccn(S(C)(=O)=O)c4)n3)c2)C[C@H](C)O1 [Compound 291] | > 0.01 | > 0.01 |
| C[C@@H]1C[C@H](COc2cccc(-c3csc(NC(=O)CNC(=O)c4ccn(S(C)(=O)=O)c4)n3)c2)C[C@H](C)O1 [Compound 292] | > 0.1 | > 0.1 |
| C[C@@H]1CN(c2cc(-c3csc(NC(=O)CNC(=O)c4ccn(S(C)(=O)=O)c4)n3)ccc2F)C[C@H](C)O1 [Compound 293] | < 0.01 | < 0.01 |
| C[C@@H]1CN(c2cccc(-c3csc(NC(=O)CNC(=O)c4ccn(S(C)(=O)=O)c4)n3)c2F)C[C@H](C)O1 [Compound 294] | > 0.01 | > 0.01 |
| C[C@@H]1CN(c2cc(F)cc(-c3csc(NC(=O)CNC(=O)c4ccn(S(C)(=O)=O)c4)n3)c2)C[C@H](C)O1 [Compound 295] | < 0.01 | < 0.01 |
| Cc1cc(-c2cccc(-c3csc(NC(=O)CNC(=O)c4ccn(S(C)(=O)=O)c4)n3)c2)on1 [Compound 296] | > 0.01 | > 0.01 |
| C[C@@H]1CN(c2ccc(F)c(-c3csc(NC(=O)CNC(=O)c4ccn(S(C)(=O)=O)c4)n3)c2)C[C@H](C)O1 [Compound 297] | > 0.1 | > 0.01 |
| CS(=O)(=O)n1ccc(C(=O)NCC(=O)Nc2nc(-c3cccc(C4CCC4)c3)cs2)c1 [Compound 298] | > 0.01 | > 0.01 |
| C[C@@H]1CN(c2cc(-c3csc(NC(=O)CNC(=O)c4ccn(C(C)(C)C)c4)n3)ccn2)C[C@H](C)O1 [Compound 299] | > 0.01 | < 0.01 |
| CS(=O)(=O)n1ccc(C(=O)NCC(=O)Nc2nc(-c3cccc(OC[C@H]4CCOC4)c3)cs2)c1 [Compound 303, 1-methylsulfonyl-N-[2-oxo-2-[[4-[3-[[(3S)-tetrahydrofuran-3-yl]methoxy]phenyl]thiazol-2-yl]amino]ethyl]pyrrole-3-carboxamide] | > 0.01 | < 0.01 |
| CS(=O)(=O)n1ccc(C(=O)NCC(=O)Nc2nc(-c3cccc(OC[C@@H]4CCOC4)c3)cs2)c1 [Compound 304, 1-methylsulfonyl-N-[2-oxo-2-[[4-[3-[[(3R)-tetrahydrofuran-3-yl]methoxy]phenyl]thiazol-2-yl]amino]ethyl]pyrrole-3-carboxamide] | > 0.01 | > 0.01 |
| CN1CCCc2ccc(-c3csc(NC(=O)CNC(=O)c4ccn(C(C)(C)C)c4)n3)cc21 [Compound 305] | > 0.01 | > 0.01 |
| CN1CCCc2ccc(-c3csc(NC(=O)CNC(=O)c4ccn(S(C)(=O)=O)c4)n3)cc21 [Compound 306] | > 0.01 | > 0.01 |
| CS(=O)(=O)n1ccc(C(=O)NCC(=O)Nc2nc(-c3cccc(OCC4CCC4)c3)cs2)c1 [Compound 307] | > 0.01 | > 0.01 |
| CC(C)(C)n1ccc(C(=O)NCC(=O)Nc2nc(-c3ccc4c(c3)OCC4)cs2)c1 [Compound 308] | > 0.01 | > 0.01 |
| CS(=O)(=O)n1ccc(C(=O)NCC(=O)Nc2nc(-c3ccc4c(c3)OCC4)cs2)c1 [Compound 309] | > 0.01 | > 0.01 |
| CO[C@H]1CCCN(c2cccc(-c3csc(NC(=O)CNC(=O)c4ccn(C(C)(C)C)c4)n3)n2)C1 [Compound 311] | > 0.01 | > 0.01 |
| CO[C@@H]1CCCN(c2cccc(-c3csc(NC(=O)CNC(=O)c4ccn(C(C)(C)C)c4)n3)n2)C1 [Compound 312] | > 0.01 | > 0.01 |
